Laboratory results reported in the supplement of paper PMC10331698.
± gives the standard deviation of the averaged measurements.

What was measured:
Assay in all cases: level (log10 ratio to DMSO vehicle control); higher = higher biomarker level / cell amount than vehicle control
[1] = compound: C=C(C)C(=O)OCC(F)(F)C(F)(F)C(F)(F)F [2,2,3,3,4,4,4-Heptafluorobutyl methacrylate]; settings: in DMSO
Description: (§1)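 BioMAP Diversity Plus panel of 12 human primary cell co-culture systems (3C, 4H, LPS, SAg, BT, BF4T, BE3C, CASM3C, HDF3CGF, KF3CT, MyoF, Mphg). Compounds were added 1 h before stimulation and left for 24 h (MyoF 48 h; BT 72 h for soluble read-outs or 6 d for IgG). Biomarkers were read by ELISA, cytotoxicity by SRB, PBMC viability and proliferation by Alamar Blue. Each well value was divided by the mean of 8 DMSO control wells on the same plate and log10 transformed; duplicate blinded samples were tested at 4 concentrations.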

[2] = compound: C=CC(=O)OCC(F)(F)C(F)(F)C(F)(F)C(F)(F)COC(=O)C=C [1H,1H,6H,6H-Perfluorohexane-1,6-diol diacrylate]; settings: 6700 nM; in DMSO
Description: as §1

[3] = compound: Cc1ccc(S(=O)(=O)OCC(F)(F)C(F)(F)C(F)(F)C(F)(F)C(F)(F)C(F)F)cc1 [1H,1H,7H-Perfluoroheptyl 4-methylbenzenesulfonate]; settings: in DMSO
Description: as §1

Perfluorooctanoic acid = compound: O=C(O)C(F)(F)C(F)(F)C(F)(F)C(F)(F)C(F)(F)C(F)(F)C(F)(F)F [Perfluorooctanoic acid]; settings: in DMSO
Description: as §1

[4] = compound: O=S(=O)(OCC(F)(F)F)C(F)(F)C(F)(F)C(F)(F)C(F)(F)F [2,2,2-Trifluoroethyl perfluorobutanesulfonate]; settings: in DMSO
Description: as §1

Perfluoropinacol = compound: OC(C(F)(F)F)(C(F)(F)F)C(O)(C(F)(F)F)C(F)(F)F [Perfluoropinacol]; settings: in DMSO
Description: as §1

[5] = compound: OCC(F)(F)C(F)(F)C(F)(F)C(F)(F)C(F)(F)C(F)(F)C(F)(F)C(F)(F)CO [1H,1H,10H,10H-Perfluorodecane-1,10-diol]; settings: in DMSO
Description: as §1

[6] = compound: OCCC(F)(F)C(F)(F)C(F)(F)C(F)(F)C(F)(F)C(F)(F)C(F)(F)C(F)(F)F [8:2 Fluorotelomer alcohol]; settings: 6700 nM; in DMSO
Description: as §1

Row | Test System | level (log10) ([1]; 6700 nM) | level (log10) ([1]; 20000 nM) | level (log10) ([1]; 60000 nM) | level (log10) [2] | level (log10) ([3]; 6700 nM) | level (log10) ([3]; 20000 nM) | level (log10) ([3]; 60000 nM) | level (log10) (Perfluorooctanoic acid; 6700 nM) | level (log10) (Perfluorooctanoic acid; 20000 nM) | level (log10) (Perfluorooctanoic acid; 60000 nM) | level (log10) ([4]; 6700 nM) | level (log10) ([4]; 20000 nM) | level (log10) ([4]; 60000 nM) | level (log10) (Perfluoropinacol; 6700 nM) | level (log10) (Perfluoropinacol; 20000 nM) | level (log10) ([5]; 6700 nM) | level (log10) ([5]; 20000 nM) | level (log10) ([5]; 60000 nM) | level (log10) [6]
1 | BT:PBMC Cytotoxicity | 0.0065 ± 0.035 | 0.005 ± 0.03 | 0.004 ± 0.055 | -0.186 ± 0.0042 | -0.017 ± 0.0057 | 0.008 ± 0.0014 | -0.017 | -0.001 ± 0.028 | 0.0565 ± 0.013 | 0.105 ± 0.033 | 0.0225 ± 0.022 | 0.0235 ± 0.056 | 0.053 ± 0.062 | 0.011 ± 0.017 | -0.0095 ± 0.023 | 0.0065 ± 0.026 | -0.012 ± 0.0085 | -0.246 | 0.001 ± 0.038
2 | BF4T:CD106/VCAM-1 | 0.009 ± 0.013 | -0.021 ± 0.011 | -0.0245 ± 0.0035 | -0.132 ± 0.016 | 0.009 ± 0.042 | 0.024 ± 0.0014 | -0.0055 ± 0.04 | -0.037 ± 0.017 | -0.0345 ± 0.032 | 0 ± 0.065 | -0.0135 ± 0.07 | -0.0035 ± 0.074 | -0.049 ± 0.027 | -0.0455 ± 0.0021 | -0.096 | -0.012 ± 0.023 | -0.139 ± 0.037 | -0.145 | -0.0905 ± 0.023
3 | BF4T:uPA | -0.01 | -0.017 ± 0.017 | -0.007 ± 0.0085 | -0.02 ± 0.035 | -0.0185 ± 0.00071 | -0.01 ± 0.0042 | -0.0165 ± 0.0064 | -0.0245 ± 0.023 | -0.0315 ± 0.016 | -0.0185 ± 0.013 | -0.0085 ± 0.018 | -0.008 ± 0.035 | -0.015 ± 0.023 | -0.0305 ± 0.019 | -0.0365 ± 0.0064 | -0.014 ± 0.017 | -0.029 ± 0.0042 | -0.06 | -0.047 ± 0.0057
4 | BF4T:CD90 | 0 ± 0.0071 | -0.004 ± 0.0057 | -0.007 ± 0.0042 | -0.0265 ± 0.0021 | -0.0095 ± 0.0064 | -0.015 ± 0.014 | -0.0175 ± 0.0092 | -0.0095 ± 0.022 | -0.006 ± 0.0028 | -0.0105 ± 0.019 | 0.004 ± 0.0099 | -0.007 ± 0.023 | -0.009 ± 0.011 | -0.015 ± 0.017 | -0.024 ± 0.0071 | -0.051 ± 0.0014 | -0.071 ± 0.0099 | -0.018 | -0.022 ± 0.0099
5 | 4H:CD106/VCAM-1 | 0.012 ± 0.04 | 0.019 ± 0.028 | 0.02 ± 0.025 | -0.057 ± 0.0057 | -0.0065 ± 0.0078 | -0.032 ± 0.013 | -0.0295 ± 0.011 | 0.0045 ± 0.022 | -0.001 ± 0.034 | -0.0165 ± 0.039 | -0.004 ± 0.025 | -0.008 ± 0.014 | 0.0015 ± 0.0021 | -0.043 ± 0.018 | -0.22 ± 0.02 | -0.0445 ± 0.011 | -0.049 ± 0.03 | -0.166 | -0.008 ± 0.013
6 | 3C:CXCL8/IL-8 | 0.0395 ± 0.042 | 0.039 ± 0.0014 | 0.051 ± 0.04 | 0.017 ± 0.024 | -0.0075 ± 0.0021 | -0.0245 ± 0.0078 | -0.061 ± 0.017 | 0.0295 ± 0.035 | 0.0585 ± 0.026 | 0.154 ± 0.0057 | 0.0105 ± 0.012 | 0.014 ± 0.024 | 0.064 ± 0.071 | 0.0215 ± 0.012 | -0.0255 ± 0.026 | -0.013 ± 0.035 | -0.007 ± 0.024 | 0.03 | -0.003 ± 0.034
7 | SAg:CD69 | -0.016 ± 0.0099 | -0.0215 ± 0.0021 | -0.009 ± 0.0042 | -0.0645 ± 0.029 | -0.01 ± 0.0099 | 0.0205 ± 0.016 | 0.0105 ± 0.00071 | -0.0095 ± 0.0035 | -0.0265 ± 0.011 | -0.0355 ± 0.016 | -0.0025 ± 0.0092 | -0.0175 ± 0.025 | -0.049 ± 0.042 | -0.039 ± 0.017 | -0.19 ± 0.033 | -0.042 ± 0.044 | -0.0685 ± 0.066 | -0.119 | -0.018 ± 0.018
8 | BF4T:MMP-1 | 0.009 ± 0.018 | -0.001 ± 0.013 | 0.009 ± 0.0057 | 0.0365 ± 0.018 | 0.0105 ± 0.046 | -0.018 ± 0.038 | 0.013 ± 0.037 | -0.002 ± 0.0057 | -0.0005 ± 0.0078 | 0.0265 ± 0.018 | -0.0035 ± 0.015 | -0.0005 ± 0.015 | -0.0095 ± 0.0021 | -0.0245 ± 0.00071 | -0.0165 ± 0.0035 | -0.003 ± 0.011 | -0.0505 ± 0.011 | -0.007 | 0.0035 ± 0.016
9 | BE3C:CXCL11/I-TAC | 0.0215 ± 0.03 | 0.0225 ± 0.005 | 0.017 ± 0.0085 | -0.0115 ± 0.0021 | -0.0205 ± 0.0064 | -0.0385 ± 0.00071 | -0.0185 ± 0.019 | -0.0225 ± 0.032 | -0.0225 ± 0.029 | -0.0095 ± 0.016 | 0.017 ± 0.0057 | -0.003 ± 0.0085 | 0.006 ± 0.0085 | 0.0435 ± 0.00071 | 0.0115 ± 0.021 | -0.0145 ± 0.0078 | -0.149 ± 0.025 | -0.901 | -0.012 ± 0.0014
10 | BF4T:CCL26/Eotaxin-3 | 0.032 ± 0.069 | 0.0385 ± 0.05 | 0.0235 ± 0.052 | -0.055 ± 0.025 | -0.0095 ± 0.046 | -0.077 ± 0.068 | -0.095 ± 0.018 | -0.023 ± 0.023 | -0.073 ± 0.013 | -0.11 ± 0.06 | -0.0015 ± 0.016 | -0.018 ± 0.0071 | -0.014 ± 0.037 | -0.108 ± 0.0042 | -0.217 ± 0.0057 | -0.0415 ± 0.042 | -0.134 ± 0.0021 | -0.255 | -0.106 ± 0.012
11 | BE3C:CD87/uPAR | -0.004 ± 0.0028 | 0.0075 ± 0.015 | 0.017 ± 0.027 | 0.014 ± 0.023 | 0.026 ± 0.017 | -0.004 ± 0.0085 | 0.005 ± 0.033 | -0.039 ± 0.057 | -0.028 ± 0.072 | 0.0245 ± 0.023 | -0.048 ± 0.0099 | -0.024 ± 0.018 | -0.0355 ± 0.026 | -0.0675 ± 0.019 | -0.231 ± 0.016 | -0.013 ± 0.011 | -0.042 ± 0.024 | -0.337 | -0.023 ± 0.041
12 | 3C:CD87/uPAR | -0.01 ± 0.025 | -0.0125 ± 0.036 | 0.012 ± 0.0085 | 0.0105 ± 0.029 | -0.018 ± 0.0014 | 0.004 ± 0.017 | -0.027 ± 0.024 | -0.0005 ± 0.0021 | -0.0035 ± 0.005 | -0.0425 ± 0.0021 | 0.0115 ± 0.023 | -0.014 ± 0.035 | -0.139 ± 0.099 | -0.159 ± 0.04 | -0.29 ± 0.022 | -0.063 ± 0.064 | -0.051 ± 0.075 | -0.165 | 0.008 ± 0.018
13 | SAg:SRB | -0.0005 ± 0.0078 | 0.0035 ± 0.0035 | 0.002 ± 0.0099 | -0.0115 ± 0.005 | 0.002 ± 0.0057 | -0.017 ± 0.011 | -0.109 ± 0.02 | -0.018 ± 0.013 | 0.0045 ± 0.012 | -0.053 ± 0.017 | 0.0025 ± 0.013 | -0.0045 ± 0.0021 | -0.005 | -0.0285 ± 0.0078 | -0.123 ± 0.0021 | 0.001 ± 0.018 | -0.0145 ± 0.015 | -0.067 | -0.0185 ± 0.00071
14 | LPS:CD106/VCAM-1 | -0.0175 ± 0.013 | -0.018 ± 0.0085 | -0.02 ± 0.0085 | -0.048 ± 0.0099 | 0.01 ± 0.0071 | 0.006 ± 0.0014 | 0.025 ± 0.011 | 0.0085 ± 0.0021 | -0.006 ± 0.013 | -0.0165 ± 0.0035 | 0.0055 ± 0.052 | -0.0075 ± 0.015 | -0.076 ± 0.013 | 0.0045 ± 0.013 | -0.0825 ± 0.015 | -0.034 ± 0.028 | -0.0485 ± 0.012 | -0.052 | -0.0785 ± 0.042
15 | BE3C:CXCL10/IP-10 | 0.0365 ± 0.029 | 0.0225 ± 0.04 | 0.0135 ± 0.035 | -0.0095 ± 0.0064 | -0.0095 ± 0.0092 | -0.033 ± 0.016 | -0.015 ± 0.0014 | -0.021 ± 0.017 | -0.0275 ± 0.013 | -0.118 ± 0.022 | 0.021 ± 0.0057 | 0.003 ± 0.0028 | 0.011 ± 0.011 | -0.0315 ± 0.0035 | -0.118 ± 0.0071 | -0.0205 ± 0.013 | -0.19 ± 0.088 | -0.94 | -0.0515 ± 0.057
